Experimental data: ChEMBL document CHEMBL1141190, “Synthesis and structure-activity relationships of 1,2,4-triazoles as a novel class of potent tubulin polymerization inhibitors” (Bioorg Med Chem Lett, 2005)
pEC50, pKi: −log10 of the molar value.

Key:
A-431 [1] = assay: Cell cycle arrest in A431 cells by accumulation at G2/M phase cell; format: functional, cell-based; conditions: Homo sapiens
Tubulin = assay: Displacement of [3H]colchicine from tubulin; format: protein-complex assay, Homo sapiens
Tubulin (Bos taurus) [2] = target: T1, Tubulin (Bos taurus) (UniProt Q6B856+Q862L2+Q862F3); conditions: at 10 µM
Description: Inhibition of tubulin polymerization in bovine brain at 10 uM

A-431 [3] = assay: Cell cycle arrest in A431 cells by accumulation at G2/M phase cell at 0.1uM; format: functional; conditions: Homo sapiens
Tubulin (Bos taurus) [4] = target: T1, Tubulin (Bos taurus); assay: Inhibition of tubulin polymerization in bovine brain at 3.33 uM
A-431 [5] = assay: Antiproliferative activity against A431 tumor cells by sulforhodamine B assay; format: functional; conditions: Homo sapiens
A498 = assay: Antiproliferative activity against A498 tumor cells by sulforhodamine B assay; format: functional; conditions: Homo sapiens
DLD-1 = assay: Antiproliferative activity against DLD1 tumor cells by sulforhodamine B assay; format: functional; conditions: Homo sapiens
DU-145 = assay: Antiproliferative activity against DU145 tumor cells by sulforhodamine B assay; format: functional; conditions: Homo sapiens
NCI-H460 = assay: Antiproliferative activity against NCI-H460 tumor cells by sulforhodamine B assay; format: functional; conditions: Homo sapiens
LoVo = assay: Antiproliferative activity against LoVo tumor cells by sulforhodamine B assay; format: functional; conditions: Homo sapiens
HCT-116 = assay: Antiproliferative activity against HCT116 tumor cells by sulforhodamine B assay; format: functional; conditions: Homo sapiens
SNB-19 = assay: Antiproliferative activity against SNB19 tumor cells by sulforhodamine B assay; format: functional; conditions: Homo sapiens
SK-OV-3 = assay: Antiproliferative activity against SKOV3 tumor cells by sulforhodamine B assay; format: functional; conditions: Homo sapiens
NCI/ADR-RES = assay: Antiproliferative activity against NCI/ADR-RES tumor cells by sulforhodamine B assay; format: functional; conditions: Homo sapiens

Structure (SMILES)	pEC50 (A-431 [1])	inhibition (Tubulin (Bos taurus) [2]) [%]	inhibition (Tubulin (Bos taurus) [4]) [%]	inhibition at 0.1 µM (A-431 [3]) [%]	also measured
COc1cc2c(c(OC)c1OC)-c1ccc(O)cc1[C@@H](N)CC2 [COLCHINOL]	7.36	–	–	–	pKi (Tubulin): 5.73
COc1cc(Nc2ccncc2-c2n[nH]c(Nc3ccc4c(c3)OCO4)n2)cc(OC)c1	8.03	100	–	84	–
COc1cc(Nc2ncccc2-c2nnc(Nc3ccc4c(c3)OCCO4)[nH]2)cc(OC)c1	–	–	–	–	pKi (Tubulin): 6.80
COc1cc(OC)cc(Oc2ncccc2-c2n[nH]c(Nc3ccc4c(c3)OCO4)n2)c1	8.14	98	91	83	pKi (Tubulin): 8.00
COc1cc(OC)cc(Oc2ncccc2-c2nnc(Nc3ccc4c(c3)OCCO4)n2C)c1	–	–	30	–	–
COc1cc(OC)cc(Oc2ccccc2-c2n[nH]c(Nc3ccc4c(c3)OCCO4)n2)c1	8.18	–	65	82	–
COc1cc(Nc2ncncc2-c2n[nH]c(Nc3ccc4c(c3)OCCO4)n2)cc(OC)c1	7.28	100	–	68	–
COc1cc(OC)cc(Oc2cnccc2-c2n[nH]c(Nc3ccc4c(c3)OCCO4)n2)c1	6.68	–	59	40	–
COc1cc(Nc2ncccc2-c2nnc(Nc3ccc4c(c3)OCCO4)n2C)cc(OC)c1	6.62	–	64	25	–
Fc1ccc(CNc2ncccc2-c2n[nH]c(Nc3ccc4c(c3)OCCO4)n2)cc1F	–	84	–	32	–
COc1cc(O)cc(Oc2ncccc2-c2n[nH]c(Nc3ccc4c(c3)OCO4)n2)c1	7.92	–	80	83	–
Fc1ccc(CNc2ncccc2-c2n[nH]c(Nc3ccc4c(c3)OCO4)n2)cc1F	–	84	–	23	–
COc1cccc(Nc2nnc(-c3cccnc3Nc3cc(OC)cc(OC)c3)[nH]2)c1	–	–	–	–	pKi (Tubulin): 7.00
c1cncc(CCNc2ncccc2-c2n[nH]c(Nc3ccc4c(c3)OCCO4)n2)c1	–	23	–	–	–
Fc1cc(F)cc(Oc2ncccc2-c2n[nH]c(Nc3ccc4c(c3)OCO4)n2)c1	–	–	97	23	–
Fc1cc(F)cc(Nc2ncccc2-c2n[nH]c(Nc3ccc4c(c3)OCO4)n2)c1	–	28	–	–	–
COc1ccc(/C=C\c2cc(OC)c(OC)c(OC)c2)cc1O [COMBRETASTATIN A4]	–	–	–	88	–
COc1cc(OC)cc(Oc2ncccc2-c2n[nH]c(NCc3ccc4c(c3)OCO4)n2)c1	–	–	90	24	–
COc1cc(OC)cc(Oc2ncccc2-c2n[nH]c(N(C)c3ccncc3)n2)c1	–	68	–	44	–
Cc1cc(C)cc(Oc2ncccc2-c2n[nH]c(Nc3ccc4c(c3)OCO4)n2)c1	8.00	–	52	83	–
O=C1CCCN1CCCNc1ncccc1-c1n[nH]c(Nc2ccc3c(c2)OCCO3)n1	–	21	–	–	–
COc1cc(OC)cc(Oc2ncncc2-c2n[nH]c(Nc3ccc4c(c3)OCCO4)n2)c1	7.36	–	69	83	–
COc1cc(Nc2ccncc2-c2n[nH]c(Nc3ccc4c(c3)OCCO4)n2)cc(OC)c1	8.28	100	–	77	–
COc1cc2c(c(OC)c1OC)-c1ccc(OC)c(=O)cc1[C@@H](NC(C)=O)CC2 [COLCHICINE]	8.55	–	–	80	–
COc1cc(Nc2nccnc2-c2n[nH]c(Nc3ccc4c(c3)OCO4)n2)cc(OC)c1	7.77	89	–	85	–
COc1cc(OC)cc(Oc2ncccc2-c2n[nH]c(Nc3cc(F)cc(F)c3)n2)c1	–	87	51	27	–
COc1cc(Oc2ncccc2-c2n[nH]c(Nc3ccc4c(c3)OCO4)n2)cc(OC)c1OC	7.80	–	89	86	–
COc1cc(OC)cc(Oc2ccncc2-c2n[nH]c(Nc3ccc4c(c3)OCCO4)n2)c1	7.89	–	96	86	–
COc1cc(OC)cc(Oc2ncccc2-c2n[nH]c(Nc3ccc4c(c3)OCCO4)n2)c1	8.44	100	88	89	pKi (Tubulin): 7.70

The next lines start with results.

pEC50 (A-431 [1])	inhibition (Tubulin (Bos taurus) [2]) [%]	inhibition (Tubulin (Bos taurus) [4]) [%]	Structure (SMILES)	inhibition at 0.1 µM (A-431 [3]) [%]	also measured
–	9	–	COc1cccc(Cc2n[nH]c(-c3cccnc3Nc3cc(OC)cc(OC)c3)n2)c1	–	–
–	47	–	COc1cc(Nc2ncccc2-c2nc(Nc3ccc(OC)cc3OC)n[nH]2)cc(OC)c1	17	–
7.08	73	–	COc1ccc(Nc2n[nH]c(-c3cccnc3Nc3cc(OC)cc(OC)c3)n2)cc1	68	–
7.68	100	100	COc1cccc(Nc2n[nH]c(-c3cccnc3Oc3cc(OC)cc(OC)c3)n2)c1	83	pKi (Tubulin): 7.30
7.18	84	–	c1cnc(NCc2ccncc2)c(-c2n[nH]c(Nc3ccc4c(c3)OCO4)n2)c1	70	–
–	9	–	COc1cccc(Nc2n[nH]c(-c3cccnc3Nc3cccc(OC)c3)n2)c1	–	–
–	15	–	COc1cc(Nc2ncccc2-c2nc(-c3cccc(OC)c3)n[nH]2)cc(OC)c1	–	–
–	88	–	COc1ccc(CNc2n[nH]c(-c3cccnc3Nc3cc(OC)cc(OC)c3)n2)cc1	22	–
7.96	–	53	CN(C)c1cccc(Oc2ncccc2-c2n[nH]c(Nc3ccc4c(c3)OCO4)n2)c1	63	–
–	–	5	COc1cc(OC)cc(Oc2ncccc2-c2nc(N(C)c3cccc(OC)c3)n[nH]2)c1	–	–
7.64	99	73	COc1cc(Nc2n[nH]c(-c3cccnc3Oc3cc(OC)cc(OC)c3)n2)cc(OC)c1	87	–
–	34	–	COc1cc(Nc2ncccc2-c2n[nH]c(Nc3ccc(C#N)cc3)n2)cc(OC)c1	–	–
< 5.00	33	–	COc1cc(Nc2ncccc2-c2nc(Nc3cc(OC)ccc3OC)n[nH]2)cc(OC)c1	20	–
–	45	–	COc1cc(Nc2n[nH]c(-c3cccnc3Nc3cc(OC)cc(OC)c3)n2)cc(OC)c1	–	–
–	0	–	COc1cccc(Nc2n[nH]c(-c3cccnc3Nc3cc(F)cc(F)c3)n2)c1	–	–
7.21	87	–	COc1cc(Nc2ncccc2-c2n[nH]c(Nc3ccc4c(c3)OCO4)n2)cc(OC)c1	85	pKi (Tubulin): 7.22
–	68	–	COc1ccc(CNc2ncccc2-c2n[nH]c(Nc3ccc4c(c3)OCCO4)n2)cc1	30	–
–	35	–	COc1cc(Nc2ncccc2-c2n[nH]c(Nc3ccc(N(C)C)cc3)n2)cc(OC)c1	–	–

pEC50 (A-431 [1])	inhibition (Tubulin (Bos taurus) [2]) [%]	inhibition (Tubulin (Bos taurus) [4]) [%]	Structure (SMILES)	inhibition at 0.1 µM (A-431 [3]) [%]	also measured
–	97	57	COc1cc(OC)cc(Oc2ncccc2-c2n[nH]c(Nc3ccc(C#N)cc3)n2)c1	27	–
–	–	28	COc1cccc(CN(C)c2n[nH]c(-c3cccnc3Oc3cc(OC)cc(OC)c3)n2)c1	–	–
6.89	76	–	COc1cc(Nc2ncccc2-c2nc(Nc3ccc4c(c3)OCCO4)n(C)n2)cc(OC)c1	26	–
–	44	–	COc1cc(Nc2ncccc2-c2n[nH]c(Nc3cc(Cl)cc(Cl)c3)n2)cc(OC)c1	–	–
–	86	–	COc1ccc(CNc2n[nH]c(-c3cccnc3Oc3cc(OC)cc(OC)c3)n2)cc1	28	–
7.18	–	49	COc1cc(OC)cc(Oc2ncccc2-c2n[nH]c(Nc3cccnc3)n2)c1	61	–
–	–	8	COc1ccc(C(=O)Nc2n[nH]c(-c3cccnc3Oc3cc(OC)cc(OC)c3)n2)cc1	–	–
–	–	43	Fc1cccc(Oc2ncccc2-c2n[nH]c(Nc3ccc4c(c3)OCO4)n2)c1	37	–
6.92	100	–	COc1cccc(CNc2n[nH]c(-c3cccnc3Nc3cc(OC)cc(OC)c3)n2)c1	71	–
7.05	80	–	COc1cccc(Nc2n[nH]c(-c3cccnc3Nc3cc(OC)cc(OC)c3)n2)c1	72	GI50 (A-431 [5]): 0.05 µM; GI50 (A498): 0.06 µM; GI50 (DLD-1): 0.07 µM; GI50 (DU-145): 0.02 µM; GI50 (NCI-H460): 0.01 µM; GI50 (LoVo): 0.02 µM; GI50 (HCT-116): 0.4 µM; GI50 (SNB-19): 0.15 µM; GI50 (SK-OV-3): 0.22 µM; GI50 (NCI/ADR-RES): 0.15 µM
< 5.00	5	–	COc1cc(Nc2ncccc2-c2n[nH]c(Nc3ccccc3)n2)cc(OC)c1	22	–
6.93	95	–	COc1cc(Nc2ncccc2-c2n[nH]c(Nc3ccc4c(c3)OCCO4)n2)cc(OC)c1	83	–
8.00	100	83	COc1cc(OC)cc(Oc2ncccc2-c2n[nH]c(Nc3cccc(O)c3)n2)c1	86	–
–	–	43	c1ccc(Oc2ncccc2-c2nc(Nc3ccc4c(c3)OCO4)n[nH]2)nc1	21	–
7.51	98	76	COc1cc(OC)cc(Oc2ncccc2-c2n[nH]c(Nc3ccc(N(C)C)cc3)n2)c1	86	–
–	4	–	COc1cccc(Nc2n[nH]c(-c3cccnc3Nc3ccccc3)n2)c1	–	–
–	100	–	COc1cccc(CNc2n[nH]c(-c3cccnc3Oc3cc(OC)cc(OC)c3)n2)c1	32	–
